Experimental findings from patent EP3981864A1, “DETERGENT COMPOSITION” (priority 2020, dated 2022) are described below.

The test system of test [1] is Solanum lycopersicum αDOX (SEQ ID NO: 8), fatty acid alpha-dioxygenase, Q5WM33, N-terminal His-tag variant SEQ ID NO: 263 (comparative). Briefly: Alpha-dioxygenase activity assay (oxygen consumption, TON). It counts as biochemical. As to conditions: fatty acid 100 µM, enzyme 6 ppm, 50 mM HEPES pH 9.0, 37°C; initial rate of oxygen consumption / enzyme concentration. The source says:
(§1) Solanum lycopersicum αDOX (SEQ ID NO: 8) is a fatty acid alpha-dioxygenase that converts fatty acids into the corresponding 2-hydroperoxy fatty acids and is included as a comparative example of the present invention. A codon optimized gene (SEQ ID NO: 262) encoding for an alpha-dioxygenase variant (SEQ ID NO: 263), including an N-terminal amino acid sequence containing a His-tag was designed and synthesized by Genscript. After gene synthesis, the protein was expressed and purified. In brief, the complete synthetic gene sequence was subcloned into a pET30a vector using the NdeI/HindIII cloning sites. For heterologous expression, Escherichia coli BL21 (DE3) cells were transformed with the recombinant plasmid and a single colony was inoculated into LB medium containing kanamycin (50 mg/L). A pre-starter culture was then inoculated into flasks containing Magic Media (Thermo Fisher, Catalog # K6803) supplemented with kanamycin (50 mg/L) and incubated at 16 °C for 72 h. At an OD600nm = 0.5 - 1.0, 5-aminolevulinic acid (final concentration 0.5 mM) was added. Cells were harvested by centrifugation at 5000 rpm and 4°C and the pellet was lysed using a bacterial cell lysis buffer (B-PER - Themo Fisher, Waltham, MA). After centrifugation, the supernatant was collected, and the protein was purified by one-step purification using HisPur™ Ni-NTA Spin Columns (Thermo Scientific, Catalog # 88226) and standard protocols known in the art. The protein was concentrated using a 10 kDa MW cutoff Amicon Ultra centrifugal filter unit (Millipore Sigma, Catalog# UFC901024), followed by desalting using a disposable PD-10 desalting column (GE Healthcare Life Sciences, Catalog# 17085101) and a buffer containing 50 mM Tris-HCl, 500 mM NaCl, and 10% Glycerol at pH 8.0. […]
(§2) Reactions with alpha-dioxygenases were performed as follows. […] The reaction was incubated for up to 10 minutes at 37°C with 200 rpm agitation and the conversion was monitored using an oxygen sensor. The TON (in s-1) were calculated as the ratio between the initial rate of oxygen consumption (in µM/s) and the concentration of enzyme (in µM). […]

The target of test [2] is T1, Nicotiana tabacum αDOX (SEQ ID NO: 6), fatty acid alpha-dioxygenase, 082031, N-terminal His-tag variant SEQ ID NO: 259 (Nicotiana tabacum, UniProt A0A1S3ZX38).
T1 construct: made in house; host or cells: Escherichia coli BL21 (DE3), pET30a
T1 sequence (A0A1S3ZX38 1-643): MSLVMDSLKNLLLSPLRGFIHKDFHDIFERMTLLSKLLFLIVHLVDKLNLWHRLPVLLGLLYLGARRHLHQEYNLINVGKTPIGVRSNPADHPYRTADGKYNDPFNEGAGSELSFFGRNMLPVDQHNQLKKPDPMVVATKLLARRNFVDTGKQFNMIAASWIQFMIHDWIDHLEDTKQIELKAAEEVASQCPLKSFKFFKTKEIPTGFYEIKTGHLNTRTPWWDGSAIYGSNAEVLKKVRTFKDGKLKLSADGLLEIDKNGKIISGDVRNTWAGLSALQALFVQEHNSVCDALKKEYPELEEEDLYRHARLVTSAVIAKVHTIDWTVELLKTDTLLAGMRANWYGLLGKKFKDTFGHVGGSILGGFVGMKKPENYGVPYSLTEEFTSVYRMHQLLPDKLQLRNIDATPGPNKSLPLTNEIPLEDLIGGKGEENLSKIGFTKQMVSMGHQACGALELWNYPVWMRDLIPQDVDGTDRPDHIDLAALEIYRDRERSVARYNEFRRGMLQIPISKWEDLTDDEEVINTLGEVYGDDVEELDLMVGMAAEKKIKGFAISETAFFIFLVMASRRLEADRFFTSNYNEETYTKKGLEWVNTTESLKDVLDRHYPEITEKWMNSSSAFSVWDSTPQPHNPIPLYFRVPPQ
Described as above. It counts as biochemical. The following applies: fatty acid 100 µM, enzyme 6 ppm, 50 mM HEPES pH 9.0, 37°C; initial rate of oxygen consumption / enzyme concentration.
Excerpt: as §1, with “Nicotiana tabacum” for “Solanum lycopersicum”, “6)” for “8)”, “an” for “a comparative”, “258)” for “262)”, “259),” for “263),”
as §2

In the case of `CCCCCCCCCCCCCCCCCC(=O)O` [Stearic Acid], the “Stearic Acid, TON” value in test [1] was determined as 0.12 s⁻¹; in test [2], 2.66 s⁻¹.
Turning to `CCCCCCCC/C=C\CCCCCCCC(=O)O` [Oleic Acid], the figures for the “Oleic Acid, TON” value in test [1] and in test [2] were 0.00 s⁻¹ and 0.78 s⁻¹, respectively.
As to `CCCCCCCCCCCCCCCC(=O)O` [Palmitic Acid], the “Palmitic Acid, TON” value in test [1] is 0.00 s⁻¹; in test [2], 3.07 s⁻¹.
